Drawing on patent publication US8163756B2 (priority 2004, dated 2012), this text covers IC50 and inhibition for 20 molecules.

Structures can show the parent of a compound that is named as a salt. Where two headings read alike, the source gives them in different places.

One assay has as its target B-Raf(V599E) kinase (Homo sapiens, UniProt P15056, V600E). The assay can be described thus: B-Raf(V599E) kinase assay B1 (construct 1, MEK1 substrate, coupled spectrophotometric). Format: biochemical. The method, then:
The test compounds were incubated with the reaction mixtureat 30° C. for 2 h. […] The reaction rate was calculated using the […] time frame. […] IC50 values were calculated from a series of percent inhibition values determined at a range of inhibitor concentrations using software routines as implemented in the GraphPad Prism software package.

The target in the next assay is T1, Abl kinase (Homo sapiens, UniProt P00519).
T1 sequence (P00519 229-512): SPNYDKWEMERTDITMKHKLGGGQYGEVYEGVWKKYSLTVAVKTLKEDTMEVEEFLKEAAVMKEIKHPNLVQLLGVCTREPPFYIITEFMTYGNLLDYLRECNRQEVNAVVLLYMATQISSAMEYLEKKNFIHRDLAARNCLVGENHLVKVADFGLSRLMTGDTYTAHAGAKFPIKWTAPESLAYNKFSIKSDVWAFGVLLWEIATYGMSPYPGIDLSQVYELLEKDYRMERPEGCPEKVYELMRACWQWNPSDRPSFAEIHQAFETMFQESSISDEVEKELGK
Put plainly: Abl kinase assay A2 (as A1, 1.1 nM enzyme, 2 h pre-incubation, 0.5 mM ATP). Format: biochemical. The method, then:
IC50 values were calculated from a series of percent inhibition values determined at a range of inhibitor concentrations using software routines as implemented in the GraphPad Prism software package.

Where [1] appears, read: Method A2, read-out: Abl Data (IC50).

Sequence of B-Raf(V599E) kinase (P15056 with tags, fused parts or gaps V600E): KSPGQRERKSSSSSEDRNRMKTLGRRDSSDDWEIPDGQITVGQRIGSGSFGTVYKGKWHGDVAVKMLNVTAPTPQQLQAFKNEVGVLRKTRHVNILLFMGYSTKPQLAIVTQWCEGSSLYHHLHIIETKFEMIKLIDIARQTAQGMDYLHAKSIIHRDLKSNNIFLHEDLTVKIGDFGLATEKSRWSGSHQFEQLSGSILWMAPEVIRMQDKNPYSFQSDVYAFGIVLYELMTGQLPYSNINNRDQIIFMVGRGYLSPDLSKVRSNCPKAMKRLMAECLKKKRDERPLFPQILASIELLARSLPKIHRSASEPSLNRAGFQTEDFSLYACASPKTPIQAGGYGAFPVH

With `Cn1c(=O)c(-c2cccc(NC(=O)Nc3cc(C4CCCC4)nn3-c3ccc4[nH]c(=O)ccc4c3)c2)cc2cncnc21` [Example 162, 1-(3-cyclopentyl-1-(2-oxo-1,2-dihydroquinolin-6-yl)-1H-pyrazol-5-yl)-3-(3-(8-methyl-7-oxo-7,8-dihydropyrido[2,3-d]pyrimidin-6-yl)phenyl)urea], the values for the 50% inhibitory concentration (IC50) against B-Raf(V599E) kinase and at Abl kinase (setting [1]) were 6.7 nM and 80 nM, respectively.
In the case of `CNC(=O)c1cc(Oc2ccc(NC(=O)Nc3cc(C(C)(C)C)nn3-c3ccc4nc(NCCN)ccc4c3)cc2)ccn1` [Example 172, 1-(1-(2-(2-aminoethylamino)quinolin-6-yl)-3-t-butyl-1H-pyrazol-5-yl)-3-(4-(2-(methylcarbamoyl)pyridin-4-yloxy)phenyl)urea], the results for the concentration for half-maximal inhibition (IC50) at B-Raf(V599E) kinase and on Abl kinase (setting [1]) were 29 nM and 1.9 nM, respectively.
For the molecule `CC(C)(C)c1cc(NC(=O)Nc2cc(F)c(F)cc2F)n(-c2cc(CC(N)=O)c3ccccc3c2)n1` [Example 81, 1-(1-(4-(2-amino-2-oxoethyl)naphthalen-2-yl)-3-t-butyl-1H-pyrazol-5-yl)-3-(2,4,5-trifluorophenyl)urea], the figures for the half-maximal inhibitory concentration (IC50) on B-Raf(V599E) kinase and on Abl kinase (setting [1]) were 4.1 nM and 120 nM, respectively.
On to `Cc1ccc(NC(=O)Nc2cc(C(C)(C)C)nn2-c2cccc(CC(=O)NCC(O)CO)c2)cc1Nc1ncccn1` (stereo not drawn) [Example 38, 1-(3-t-butyl-1-(3-(2-(2,3-dihydroxypropylamino)-2-oxoethyl)phenyl)-1H-pyrazol-5-yl)-3-(4-methyl-3-(pyrimidin-2-ylamino)phenyl)urea], for which, at Abl kinase (setting [1]), the IC50 amounted to 1400 nM.
In the case of `Cn1c(=O)c(-c2cccc(NC(=O)Nc3cc(C(C)(C)C)nn3-c3ccc4c(c3)CCNC4)c2)cc2cncnc21` [Example 149, 1-(3-t-butyl-1-(1,2,3,4-tetrahydroisoquinolin-6-yl)-1H-pyrazol-5-yl)-3-(3-(8-methyl-7-oxo-7,8-dihydropyrido[2,3-d]pyrimidin-6-yl)phenyl)urea], the values for the half-inhibitory concentration (IC50) at B-Raf(V599E) kinase and at Abl kinase (setting [1]) were 9.3 nM and 1.2 nM, respectively.
As to `Cc1ccc(NC(=O)Nc2cc(C(C)(C)C)nn2-c2ccc3nc(N4CCNCC4)ccc3c2)cc1Nc1nccc(-c2cccnc2)n1` [Example 171, 1-(3-t-butyl-1-(2-(piperazin-1-yl)quinolin-6-yl)-1H-pyrazol-5-yl)-3-(4-methyl-3-(4-(pyridin-3-yl)pyrimidin-2-ylamino)phenyl)urea], on Abl kinase (setting [1]), the IC50 came to 4 nM.
Take `CC(C)(C)c1cc(NC(=O)Nc2ccc(-c3cccc4c3CNC4=O)cc2)n(-c2ccc3c(c2)CC(C(=O)O)NC3)n1` (stereo not drawn) [Example 181, 6-(3-t-butyl-5-(3-(4-(1-oxoisoindolin-4-yl)phenyl)ureido)-1H-pyrazol-1-yl)-1,2,3,4-tetrahydroisoquinoline-3-carboxylic acid]: the half-inhibitory concentration (IC50) at Abl kinase (setting [1]) is 6.6 nM.
For `CC(C)(C)c1cc(NC(=O)Nc2cccc(C#N)c2)n(-c2cc(CN)c3ccccc3c2)n1` [Example 73, 1-(1-(4-(aminomethyl)naphthalen-2-yl)-3-t-butyl-1H-pyrazol-5-yl)-3-(3-cyanophenyl)urea], the values for the half-inhibitory concentration (IC50) at B-Raf(V599E) kinase and on Abl kinase (setting [1]) were 45 nM and 190 nM, respectively.
Turning to `CNC(=O)c1cc(Oc2ccc(NC(=O)Nc3cc(C4CCCC4)nn3-c3ccc4[nH]c(=O)ccc4c3)cc2)ccn1` [Example 163, 1-(3-cyclopentyl-1-(2-oxo-1,2-dihydroquinolin-6-yl)-1H-pyrazol-5-yl)-3-(4-(2-(methylcarbamoyl)pyridin-4-yloxy)phenyl)urea], the IC50 came out at 18 nM against B-Raf(V599E) kinase and 6.3 nM at Abl kinase (setting [1]).
Take `CC(C)(C)c1cc(NC(=O)Nc2cc(F)cc(C#N)c2)n(-c2ccc3c(c2)CCNC3)n1` [Example 152, 1-(3-t-butyl-1-(1,2,3,4-tetrahydroisoquinolin-6-yl)-1H-pyrazol-5-yl)-3-(3-cyano-5-fluorophenyl)urea hydrochloride]: half-maximal inhibition against Abl kinase (IC50) required 570 nM.
With `CNC(=O)c1cc(Oc2ccc(NC(=O)Nc3cc(C(C)(C)C)nn3-c3ccc4nc(N5CCNCC5)ccc4c3)cc2)ccn1` [Example 170, 1-(3-t-butyl-1-(2-(piperazin-1-yl)quinolin-6-yl)-1H-pyrazol-5-yl)-3-(4-(2-(methylcarbamoyl)pyridin-4-yloxy)phenyl)urea], the values for the IC50 at B-Raf(V599E) kinase and at Abl kinase (setting [1]) were 40 nM and 1.8 nM, respectively.
On to `O=C1CCc2cc(-n3nc(C4CCCC4)cc3NC(=O)Nc3cccc(Oc4cccnc4)c3)ccc2N1` [Example 133, 1-(3-cyclopentyl-1-(2-oxo-1,2,3,4-tetrahydroquinolin-6-yl)-1H-pyrazol-5-yl)-3-(3-(pyridin-3-yloxy)phenyl)urea], for which, at Abl kinase (setting [1]), the IC50 is 48 nM.
With `CC(C)(C)c1cc(NC(=O)Nc2cccc(C#N)c2)n(-c2ccc3c(c2)CCNC3)n1` [Example 139, 1-(3-t-butyl-1-(1,2,3,4-tetrahydro-isoquinolin-6-yl)-1H-pyrazol-5-yl)-3-(3-cyanophenyl)urea], at Abl kinase (setting [1]), the half-maximal inhibitory concentration (IC50) was 140 nM.
On the same count and under the same terms, under `O=C(Nc1cccc(Oc2cccnc2)c1)Nc1cc(C2CCCC2)nn1-c1ccc2[nH]c(=O)ccc2c1` [Example 164, 1-(3-cyclopentyl-1-(2-oxo-1,2-dihydroquinolin-6-yl)-1H-pyrazol-5-yl)-3-(3-(pyridin-3-yloxy)phenyl)urea] stands 33 nM; under `CC(C)(C)c1cc(NC(=O)Nc2cccc(Oc3cccnc3)c2)n(-c2ccc3c(c2)CC(C(=O)NCC(O)CO)NC3)n1` (stereo not drawn) [Example 182, 1-(1-(3-((2,3-dihydroxypropyl)carbamoyl)-1,2,3,4-tetrahydroisoquinolin-6-yl)-3-t-butyl-1H-pyrazol-5-yl)-3-(3-(pyridin-3-yloxy)phenyl)urea], 3.4 nM; under `CC(C)(C)c1cc(NC(=O)Nc2ccc(-c3cccc4c3CNC4=O)cc2)n(-c2ccc3c(c2)CCN3S(C)(=O)=O)n1` [Example 192, 1-(3-t-butyl-1-(1-(methylsulfonyl)indolin-5-yl)-1H-pyrazol-5-yl)-3-(4-(1-oxoisoindolin-4-yl)phenyl)urea], 27 nM.
As to `CC(C)(C)c1cc(NC(=O)Nc2cccc(Oc3cccnc3)c2)n(-c2ccc3c(c2)CCNC3C(=O)NCC(O)CO)n1` (stereo not drawn) [Example 184, 1-(1-(1-((2,3-dihydroxypropyl)carbamoyl)-1,2,3,4-tetrahydroisoquinolin-6-yl)-3-t-butyl-1H-pyrazol-5-yl)-3-(3-(pyridin-3-yloxy)phenyl)urea], the concentration for half-maximal inhibition (IC50) at Abl kinase (setting [1]) came out at 10 nM.
The same measure, in the same setting: under `CC(C)(C)c1cc(NC(=O)Nc2ccc(-c3cccc4c3CNC4=O)cc2)n(-c2ccc3c(c2)CCN3)n1` [Example 191, 1-(3-t-butyl-1-(indolin-5-yl)-1H-pyrazol-5-yl)-3-(4-(1-oxoisoindolin-4-yl)phenyl)urea] stands 21 nM.
For the molecule `CC(C)(C)c1cc(NC(=O)Nc2cccc(-c3cccnc3)c2)n(-c2ccc3c(c2)CCC(=O)N3)n1` [Example 161, 1-(3-t-butyl-1-(2-oxo-1,2,3,4-tetrahydroquinolin-6-yl)-1H-pyrazol-5-yl)-3-(3-(pyridin-3-yl)phenyl)urea], the inhibition at 1 µM on Abl kinase (@ 1 μM, Method A2, read-out: Abl Data (percent inhibition)) came to 3%.
In the case of `CC(C)(C)c1cc(NC(=O)Nc2cccc(-c3ccc(N)nc3)c2)n(-c2ccc3c(c2)CCC(=O)N3)n1` [Example 160, 1-(3-(6-aminopyridin-3-yl)phenyl)-3-(3-t-butyl-1-(2-oxo-1,2,3,4-tetrahydroquinolin-6-yl)-1H-pyrazol-5-yl)urea], at Abl kinase (setting [1]), the IC50 worked out at 14900 nM.

For orientation: IC50 means the concentration that gives 50% inhibition. One may read the inhibition as how much of the control response was suppressed.
